# Test results: patent US10202418B2, “Hydroxy-ethylene derivatives for the treatment of arthrosis” (MERCK PATENT GMBH, priority 2013, dated 2019)
# Starred links: 1 amine or outer side, 2 acyl side, 3 side chain; linkers in the order of their positions; H or OH if unused. Non-standard residues stand in square brackets, D forms with d. Residues, ends and D or L forms follow the SMILES beside them. *: point of attachment. Hexanoyl(5S-NH,4S-OH,6-Ph) = O=C(CC[C@H](O)[C@H](Cc1ccccc1)N[*:1])[*:2]; Sta = CC(C)C[C@H](N)[C@@H](O)CC(=O)O; Isovaleryl = CC(C)CC(=O)*; Boc = CC(C)(C)OC(=O)*
# Legend:
# [1] = system: rat knee joint; test: Anti-hyperalgesic effect in animals (carrageenan-injected rat knee joint, Hargreaves test); format: in vivo; settings: intra-articular, 30 minutes before CAR
# Experimental: In order to induce an inflammation reaction, a carrageenan solution (CAR, 1%, 50 μl) was injected intra-articularly on one side into a rat knee joint. The uninjected side was used for control purposes. Six animals per group were used. The threshold was determined by means of a micrometer screw (medial-lateral on the knee joint), and the thermal hyperalgesia was determined by means of a directed infrared light source by the Hargreaves method (Hargreaves et al., 1988) on the sole of the foot. […] Experimental description of thermal hyperalgesia (Hargreaves test): the experimental animal is placed in a plastic chamber on a quartz sheet. Before testing, the experimental animal is firstly given about 5-15 minutes time to familiarise itself with the environment. As soon as the experimental animal no longer moves so frequently after the familiarisation phase (end of the exploration phase), the infrared light source, whose focus is in the plane of the glass bottom, is positioned directly beneath the rear paw to be stimulated. […] Light reflected by the paw is recorded as long as the experimental animal sits still. Withdrawal of the paw interrupts this reflection, after which the infrared light source is switched off and the time from switching on to switching off is recorded. […]
# [2] = system: cartilage explant cultures; settings: pH 5.5, explant cultures; cited from earlier work
# [3] = biological target: cathepsin D isolated from the human liver (Homo sapiens (Human), UniProt P07339); test: In-vitro fluorescence assay for identification of cathepsin D inhibitors; format: biochemical; settings: cathepsin D 1.4 nM, pH 5.5; values in E notation; read-out: Cath D IC50
# Chain of cathepsin D isolated from the human liver (P07339 65-161): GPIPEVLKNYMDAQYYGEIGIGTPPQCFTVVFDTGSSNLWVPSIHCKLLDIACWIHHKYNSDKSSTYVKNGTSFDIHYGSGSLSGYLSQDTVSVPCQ
# Chain of cathepsin D isolated from the human liver (P07339 169-412): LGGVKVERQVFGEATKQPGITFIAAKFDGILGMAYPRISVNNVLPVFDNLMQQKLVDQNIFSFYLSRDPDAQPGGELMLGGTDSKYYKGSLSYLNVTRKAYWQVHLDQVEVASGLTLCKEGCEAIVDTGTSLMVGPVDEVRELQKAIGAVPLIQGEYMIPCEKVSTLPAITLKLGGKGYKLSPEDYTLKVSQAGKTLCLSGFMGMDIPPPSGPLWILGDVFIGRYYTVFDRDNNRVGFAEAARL
# Experimental: In order to identify modulators of cathepsin D activity, a continuous enzymatic test was carried out with a synthetic peptide which carries a fluorescent group (MCA=(7-methoxycoumarin-4-yl)acetyl) which is quenched by energy transfer from a Dpn (2,4 dinitrophenyl) group on the same molecule, in Greiner 384-well nb microtitre plates. Cleavage of the peptidic substrate by cathepsin D causes an increase in the fluorescence intensity. In order to determine the efficacy of substances, the time-dependent increase in the fluorescence intensity in the presence of the substance was compared with the time-dependent increase in fluorescence in the absence of substances. The reference substance used was pepstatin A (Sigma-Aldrich). The substrate used was MCA-GKPILFFRLK(Dnp)d-R—NH2 (Enzo Life Sciences, Lor-rach). The enzyme employed was cathepsin D isolated from the human liver (Sigma-Aldrich) in a final concentration of 1.4 nM. The test was carried out in 100 mM sodium acetate buffer, 1.25% (v/v) of DMSO, 0.25% (w/v) of Chaps, pH 5.5. 2 μl of each substance solution with serially diluted substance concentration were added to in each case 4 μl of cathepsin D solution and incubated at room temperature for 10 min. The reaction was started by addition of 2 μl of substrate solution (final concentration 5 μM). After carrying out a starting-point fluorescence measurement (excitation wavelength 340 nm/emission wavelength 450 nm) using an Envision multilabel reader (Perkin Elmer), the reaction was incubated at room temperature for 60 min. The amount of peptide fragment cleaved off during the reaction time was subsequently measured by determination of the increase in the fluorescence intensity at 450 nm (excitation wavelength 340 nm).
# The IC50 values of the compounds according to the invention can be obtained from Table 2 from Example 1.
# [4] = biological target: recombinant human renin (Homo sapiens (Human), UniProt P00797); test: In-vitro fluorescence assay for identification of renin-inhibitory activity; format: biochemical; settings: renin 10 nM, pH 7.2
# Chain of recombinant human renin (P00797 67-406): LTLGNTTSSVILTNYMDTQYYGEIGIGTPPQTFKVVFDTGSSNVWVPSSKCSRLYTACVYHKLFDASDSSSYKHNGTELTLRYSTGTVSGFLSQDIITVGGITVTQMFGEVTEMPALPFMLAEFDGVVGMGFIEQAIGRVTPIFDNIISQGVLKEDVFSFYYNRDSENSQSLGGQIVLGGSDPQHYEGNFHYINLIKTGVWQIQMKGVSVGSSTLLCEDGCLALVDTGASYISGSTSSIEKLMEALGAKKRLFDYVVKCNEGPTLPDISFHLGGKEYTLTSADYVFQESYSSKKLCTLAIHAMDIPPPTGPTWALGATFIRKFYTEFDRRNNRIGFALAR
# Experimental: In order to identify modulators of renin activity, a continuous enzymatic test was carried out with a synthetic peptide which carries a fluorescent group Edans (=(5-(aminoethyl)aminonaphthalenesulfonate) which is quenched by energy transfer from a Dabcyl (4′-dimethylaminoazobenzene-4-carboxylate) group on the same molecule, in Greiner 384-well microtitre plates. Cleavage of the peptidic substrate by renin causes an increase in the fluorescence intensity. In order to determine the efficacy of substances, the time-dependent increase in the fluorescence intensity in the presence of the substance was compared with the time-dependent increase in fluorescence in the absence of substances. The reference substance used was renin inhibitor 2 (Z-Arg-Arg-Pro-Phe-His-Sta-Ile-His N-Boc-Lys methyl ester Z) (Sigma-Aldrich). The substrate used was renin FRET substrate I (DABCYL-g-Abu-Ile-His-Pro-Phe-His-Leu-Val-Ile-His-Thr EDANS) (Anaspec, Fremont Calif.). The enzyme employed was recombinant human renin (Proteos, Kalamazoo, Mich.) in a final concentration of 10 nM. The test was carried out in 50 mM Mops buffer, 1.5% (v/v) of DMSO, 0.1% (w/v) of Igepal®, pH 7.2, 0.5% (w/v) of BSA. 2 μl of each substance solution with serially diluted substance concentration were added to in each case 4 μl of renin solution and incubated at room temperature for 15 min. The reaction was started by addition of 4 μl of substrate solution (final concentration 5 μM). After carrying out a starting-point fluorescence measurement (excitation wavelength 340 nm/emission wavelength 495 nm) using an Envision multilabel reader (Perkin Elmer), the reaction was incubated at 37° C. for 60 min. The amount of peptide fragment cleaved off during the reaction time was subsequently measured by determination of the increase in the fluorescence intensity at 495 nm (excitation wavelength 340 nm).
SMILES,inhibition of autodigestion of the cartilage [2],IC50 [3],other results
"C[C@]12C=CC(=O)C=C1CC[C@H]1[C@@H]3C[C@@H](O)[C@](O)(C(=O)CO)[C@@]3(C)C[C@H](O)[C@@]12F [TAC, Triamcinolone]",–,–,reduction of CAR-induced swelling [1]: capable of reducing the CAR-induced swelling
CC(C)CC(=O)N[C@H](C(=O)N[C@H](C(=O)N[C@@H](CC(C)C)[C@@H](O)CC(=O)N[C@@H](C)C(=O)N[C@@H](CC(C)C)[C@@H](O)CC(=O)O)C(C)C)C(C)C [pepstatin] (Isovaleryl-VV[Sta]A[Sta]-OH),inhibited virtually completely,–,–
CC(C)c1nc(CN(C)C(=O)N[C@H](C(=O)N[C@@H](Cc2ccccc2)C[C@H](O)[C@H](Cc2ccccc2)NC(=O)OCc2cncs2)C(C)C)cs1 [ritonavir],inhibited virtually completely,–,–
"CC(C)[C@H](NC(=O)Cc1cccc(Oc2ccccc2)c1)C(=O)N[C@@H](Cc1ccccc1)[C@@H](O)CCC(=O)NCCc1ccccc1 [Compound A6, (4S,5S)-4-Hydroxy-5-{(S)-3-methyl-2-[2-(3-phenoxyphenyl)acetylamino]-butyrylamino}-6-phenylhexanoic acid phenethylamide]",–,12 µM,IC50 [4]: > 30 µM
"CC[C@H](C)[C@H](NC(=O)CC[C@H](O)[C@H](Cc1ccccc1)NC(=O)[C@@H](NC(=O)[C@H](CC(C)C)NC(=O)OC(C)(C)C)C(C)C)C(=O)N[C@H](C(=O)OC)C(C)C [Compound A2, (S)-2-((2S,3S)-2-{(4S,5S)-5-[(S)-2-((S)-2-tert-Butoxycarbonylamino-4-methylpentanoylamino)-3-methylbutyrylamino]-4-hydroxy-6-phenyl-hexanoylamino}-3-methylpentanoylamino)-3-methylbutyric acid methyl ester] (Boc-LV[Hexanoyl(5S-NH,4S-OH,6-Ph)]IV-OMe)",–,0.041 µM,IC50 ([4]; values in E notation): 1.1 µM
